Test results published in publication PMC4126480, “Evaluation of drug interaction potential of Labisia pumila (Kacip Fatimah) and its constituents” (Frontiers in Pharmacology, 2014).
Several values for one entry are separate records, joined by “and”; a condition that tells them apart may be missing. Identical values can stand only once.

Assays:
[1] = Estimation of concentration per dose, GIT and plasma concentrations (560 mg KF extract dose); set-up: species or system human; conditions: for Estimated concentration per dose: 560 mg KF extract, single dose, from % yield; for Estimated GIT concentration / Estimated Plasma concentration: 560 mg dose; for Estimated GIT concentration: human GIT volume 250 mL; for Estimated Plasma concentration: Table 2, plasma volume 3 L, 100% bioavailable assumed
Method: (§1) All assumptions to predict the HDI potential of KF methanolic extract and its constituents were according to previously published report ([Awortwe et al., 2014]). The % yield was calculated from the amounts extracted from the KF roots ([Ali and Khan, 2011]). The human GIT volume is 250 mL and plasma volume is about 3 L. The commonly used maximum dose of KF extract capsules is 560 mg per day ([Abdul Kadir et al., 2012]) and accordingly we estimated the concentration per dose, GIT, and plasma concentrations of extract and its constituents. We then compared the in vitro IC50 values obtained from recombinant CYPs with estimated GIT and plasma concentrations. If the IC50 values were lower than the GIT or plasma concentration, then the test compound or extract is likely to cause HDI in vivo.

CYP2D6 [2] = biological target: T1, CYP2D6 (Homo sapiens, UniProt P10635); experiment: Prediction of in vivo HDI from in vitro results, CYP2D6; conditions: for Likelihood of causing HDI: CYP2D6, IC50 compared with estimated GIT and plasma concentrations; for Plasma concentration: Table 3, CYP2D6 section
T1 construct: purchased BD Gentest (Woburn, MA, USA); host or cells: baculovirus expression system
T1 sequence (P10635 whole entry): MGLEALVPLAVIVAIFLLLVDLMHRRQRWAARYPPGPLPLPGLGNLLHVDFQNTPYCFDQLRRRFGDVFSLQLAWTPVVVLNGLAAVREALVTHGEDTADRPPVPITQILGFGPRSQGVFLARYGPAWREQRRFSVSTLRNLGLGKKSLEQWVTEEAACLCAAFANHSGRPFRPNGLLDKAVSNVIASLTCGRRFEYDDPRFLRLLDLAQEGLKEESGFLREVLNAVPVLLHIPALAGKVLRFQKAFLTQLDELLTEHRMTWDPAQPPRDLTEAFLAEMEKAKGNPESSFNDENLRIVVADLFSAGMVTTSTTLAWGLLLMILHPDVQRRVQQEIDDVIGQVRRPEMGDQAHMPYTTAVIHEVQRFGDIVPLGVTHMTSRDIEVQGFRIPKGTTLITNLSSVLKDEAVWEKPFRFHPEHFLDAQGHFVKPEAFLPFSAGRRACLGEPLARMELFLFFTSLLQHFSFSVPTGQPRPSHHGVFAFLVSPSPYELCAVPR
Method: as §1

CYP3A4 [3] = biological target: T2, CYP3A4 (Homo sapiens, UniProt P08684); experiment: Time dependent inhibition (pre-incubation assay) of recombinant CYP3A4; type: in vitro ADME
T2 construct: purchased BD Gentest (Woburn, MA, USA); host or cells: baculovirus expression system
T2 sequence (P08684 whole entry): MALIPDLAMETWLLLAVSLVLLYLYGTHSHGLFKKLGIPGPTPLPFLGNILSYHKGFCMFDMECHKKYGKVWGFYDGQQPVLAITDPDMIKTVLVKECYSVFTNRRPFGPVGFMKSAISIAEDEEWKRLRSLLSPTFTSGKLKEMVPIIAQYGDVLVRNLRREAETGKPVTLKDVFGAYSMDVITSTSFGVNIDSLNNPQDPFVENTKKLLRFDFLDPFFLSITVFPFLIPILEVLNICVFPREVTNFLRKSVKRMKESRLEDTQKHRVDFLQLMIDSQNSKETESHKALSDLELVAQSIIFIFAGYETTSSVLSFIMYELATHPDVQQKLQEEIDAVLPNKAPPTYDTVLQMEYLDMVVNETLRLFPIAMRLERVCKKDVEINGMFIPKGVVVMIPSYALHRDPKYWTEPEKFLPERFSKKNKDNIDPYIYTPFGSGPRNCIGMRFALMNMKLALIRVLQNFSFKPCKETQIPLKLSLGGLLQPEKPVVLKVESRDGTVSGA
Method: The reaction mixture (180–190 μL), consisting of test sample, recombinant enzyme, control protein (0.05 mg of protein/mL), cofactor mix, G-6-PDH, and 50 mM potassium phosphate buffer (pH 7.4) was pre-incubated for 30 min followed by addition of respective fluorescent substrates (10–20 μL) and further incubation for 15 (CYP1A2), 30 (CYP3A4), or 45 (CYP 2C9 and 2C19) min. The reaction was terminated by addition of 75 μL of ice cold acetonitrile/0.5 M Tris base (80:20) and fluorescence was measured as above. IC50 values (pre-incubation assay) were obtained as above. The shift in the concentration-response curve was calculated as the ratio of IC50 (co-incubation)/IC50 (pre-incubation).

CYP2C19 [4] = biological target: T3, CYP2C19 (Homo sapiens, UniProt P33261); experiment: Reversible inhibition (co-incubation assay) of recombinant CYP2C19; type: in vitro ADME
T3 construct: purchased BD Gentest (Woburn, MA, USA); host or cells: baculovirus expression system
T3 sequence (P33261 whole entry): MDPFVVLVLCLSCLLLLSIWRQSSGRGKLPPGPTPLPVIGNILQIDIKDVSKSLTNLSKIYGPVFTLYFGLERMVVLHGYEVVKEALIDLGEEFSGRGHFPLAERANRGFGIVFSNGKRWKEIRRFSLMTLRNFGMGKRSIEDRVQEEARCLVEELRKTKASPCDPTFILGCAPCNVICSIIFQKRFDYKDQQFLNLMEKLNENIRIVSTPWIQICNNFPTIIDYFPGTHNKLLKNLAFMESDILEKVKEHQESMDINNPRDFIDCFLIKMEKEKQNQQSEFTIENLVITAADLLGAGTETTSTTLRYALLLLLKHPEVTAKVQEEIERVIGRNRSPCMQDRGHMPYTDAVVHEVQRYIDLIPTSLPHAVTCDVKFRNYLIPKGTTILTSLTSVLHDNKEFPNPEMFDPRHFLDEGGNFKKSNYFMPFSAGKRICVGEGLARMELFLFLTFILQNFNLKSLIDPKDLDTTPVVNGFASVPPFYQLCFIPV
Method: (§2) The assay for reversible inhibition was conducted in a total volume of 200 μL in 96-well microplates. The assay conditions, enzyme and substrate concentrations were similar as reported earlier ([Crespi et al., 1997]; [Manda et al., 2013]). Test samples or positive controls were serially diluted in a solution (100 μL) of cofactors mix, control protein (0.05 mg of protein/mL), and G-6-PDH to achieve six concentrations (100-0.4 μM or μg/mL). Initial readings were taken to record any inherent fluorescence and the plates were incubated at 37°C for 10 min. Reaction was initiated by the addition of enzyme substrate mixture (100 μL) followed by incubation for 15, 30, or 45 min. The reaction was terminated by the addition of 75 μL of ice cold acetonitrile/0.5 M Tris base (80:20). Fluorescence was measured on Spectramax M5 plate reader (Molecular Devices, Sunnyvale, CA, USA) at specified excitation and emission wavelengths for each substrate. IC50 values (co-incubation assay) were obtained from concentration-response curves generated by plotting concentration versus % inhibition.

CYP3A4 [5] = biological target: T2, CYP3A4; experiment: Reversible inhibition (co-incubation assay) of recombinant CYP3A4, fluorescent substrate; type: in vitro ADME
Method: as §2, with “The assay conditions, enzyme and substrate concentrations were similar as reported earlier ([Crespi et al., 1997]; [Manda et al., 2013]).” left out

CYP2C9 [6] = biological target: T4, CYP2C9 (Homo sapiens, UniProt P11712); experiment: Time dependent inhibition (pre-incubation assay) of recombinant CYP2C9; type: in vitro ADME; conditions: recombinant CYP2C9, 30 min pre-incubation
T4 construct: purchased BD Gentest (Woburn, MA, USA); host or cells: baculovirus expression system
T4 sequence (P11712 whole entry): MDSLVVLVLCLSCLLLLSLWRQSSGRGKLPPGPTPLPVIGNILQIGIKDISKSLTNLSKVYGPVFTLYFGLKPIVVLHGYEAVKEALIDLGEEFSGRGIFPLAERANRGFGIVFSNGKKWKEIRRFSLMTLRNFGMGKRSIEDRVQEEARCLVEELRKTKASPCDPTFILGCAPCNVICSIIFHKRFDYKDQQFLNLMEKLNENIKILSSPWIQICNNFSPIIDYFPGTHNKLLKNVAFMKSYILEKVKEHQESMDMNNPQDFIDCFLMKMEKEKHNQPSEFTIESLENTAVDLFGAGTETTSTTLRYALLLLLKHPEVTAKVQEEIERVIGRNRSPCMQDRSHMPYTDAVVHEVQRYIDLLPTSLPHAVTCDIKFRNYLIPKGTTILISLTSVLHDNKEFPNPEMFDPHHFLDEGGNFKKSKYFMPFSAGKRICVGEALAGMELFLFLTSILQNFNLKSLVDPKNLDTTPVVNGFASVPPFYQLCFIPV
Method: Time dependent inhibition (TDI) of CYPs was measured as described earlier by [Sekiguchi et al. (2009)]. The reaction mixture (180–190 μL), consisting of test sample, recombinant enzyme, control protein (0.05 mg of protein/mL), cofactor mix, G-6-PDH, and 50 mM potassium phosphate buffer (pH 7.4) was pre-incubated for 30 min followed by addition of respective fluorescent substrates (10–20 μL) and further incubation for 15 (CYP1A2), 30 (CYP3A4), or 45 (CYP 2C9 and 2C19) min. The reaction was terminated by addition of 75 μL of ice cold acetonitrile/0.5 M Tris base (80:20) and fluorescence was measured as above. IC50 values (pre-incubation assay) were obtained as above. The shift in the concentration-response curve was calculated as the ratio of IC50 (co-incubation)/IC50 (pre-incubation).

CYP2C19 [7] = biological target: T3, CYP2C19; experiment: Prediction of in vivo HDI from in vitro results, CYP2C19; set-up: key to Likelihood of causing HDI: If the IC50 values were lower than the GIT or plasma concentration, then the test compound or extract is likely to cause HDI in vivo; conditions: for Likelihood of causing HDI: CYP2C19, IC50 compared with estimated GIT and plasma concentrations; for Plasma concentration: Table 3, CYP2C19 section
Method: as §1

CYP2C9 [8] = biological target: T4, CYP2C9; experiment: Reversible inhibition (co-incubation assay) of recombinant CYP2C9; type: in vitro ADME
Method: as §2

CYP2D6 [9] = biological target: T1, CYP2D6; experiment: Reversible inhibition of recombinant CYP2D6; type: in vitro ADME
Method: as §2

[10] = recombinant CYP2C19, co-incubation

SMILES | Estimated concentration per dose [1] | Estimated GIT concentration [1] | Estimated Plasma concentration [1] | Likelihood of causing HDI (CYP2D6 [2]) | Plasma concentration (CYP2D6 [2]) | IC50 (CYP3A4 [3]) | IC50 (CYP2C19 [4]; [10]) | IC50 (CYP3A4 [5]) | IC50 (CYP2C9 [6]) | Likelihood of causing HDI (CYP2C19 [7]) | Plasma concentration (CYP2C19 [7]) | IC50 (CYP2C9 [8]) | IC50 (CYP2D6 [9]) | IC50 (CYP2C19 [4]; human, recombinant CYP2C19, recombinant CYP2C19, co-incubation)
CCCC/C=C\CCCCCCCCCc1cc(O)cc(O)c1 [5-[10(Z)-pentadecenyl]resorcinol] | 6.72 mg/mL | 27.1 µg/mL | 2.2 µg/mL | Remote | 1.46 µg/mL | 0.3 ± 0.06 µM | 3.77 µM | 4.1 µM and 4.4 µM | 8 ± 1.4 µM | likely | 13.22 µg/mL | 11.9 µM | 87.9 µM | –
CCCC/C=C\CCCCCCCCCc1cc(O)cc(OC)c1 [Belamcandol B] | 3.41 mg/mL | 13.64 µg/mL | 1.13 µg/mL | unlikely | 0.65 µg/mL | 10 ± 1.3 µM | 2.2 ± 0.6 µM | 18 µM and 45.1 µM | 23 ± 2.1 µM | likely | – | 69.2 µM | 105 µM | 2.2 µg/mL
CCCC/C=C\CCCCCCCCCC1=C(c2c(O)cc(O)cc2CCCCCCCCC/C=C\CCCC)C(=O)C=C(OC)C1=O [Demethylbelamcandaquinone B] | 6.77 mg/mL | 27.1 µg/mL | 2.25 µg/mL | unlikely | 1.64 µg/mL | 26 ± 1.5 µM | 8 µM and 7.99 µM | 69 µM and 67.9 µM | 22 ± 1.8 µM | likely | 0.79 µg/mL | 16 µM and 15.1 µM | 33.2 µM | –
CCCC/C=C\CCCCCCCCCc1cc(O)cc2oc3cc(OC)c(O)c(CCCCCCCCC/C=C\CCCC)c3c12 [Fatimahol] | 0.05 mg/mL | 0.20 µg/mL | 0.016 µg/mL | unlikely | 0.016 µg/mL | 4.4 ± 1.3 µM | 17 µM | 25 µM and 24.7 µM | 23 ± 1.5 µM | unlikely | 0.016 µg/mL | 17 µM | – | –
